Assay results reported in PubChem BioAssay (NCI).
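How tested: cells in 96-well plates exposed to compound for 48 hours at five concentrations. Definition used: TGI = concentration required for complete inhibition of growth.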

Key:
Assay in all cases: inhibition of tumour cell growth, NCI panel, 48 h
HCT-116 colon = system: HCT-116 colon
M14 melanoma = system: M14 melanoma
HCT-15 colon = system: HCT-15 colon
SR leukemia = system: SR leukemia
CAKI-1 renal = system: CAKI-1 renal
UACC-257 melanoma = system: UACC-257 melanoma
HOP-62 NSCLC = system: HOP-62 NSCLC
NCI/ADR-RES ovarian = system: NCI/ADR-RES ovarian
CCRF-CEM leukemia = system: CCRF-CEM leukemia
T-47D breast = system: T-47D breast
UACC-62 melanoma = system: UACC-62 melanoma
SK-MEL-2 melanoma = system: SK-MEL-2 melanoma
IGROV1 ovarian = system: IGROV1 ovarian
A498 renal = system: A498 renal
RPMI-8226 leukemia = system: RPMI-8226 leukemia
SNB-19 CNS = system: SNB-19 CNS
NCI-H460 lung = system: NCI-H460 lung
OVCAR-8 ovarian = system: OVCAR-8 ovarian
COLO 205 colon = system: COLO 205 colon
SK-OV-3 ovarian = system: SK-OV-3 ovarian
SN12C renal = system: SN12C renal
MDA-N = system: MDA-N
SF-295 CNS = system: SF-295 CNS
786-0 renal = system: 786-0 renal
ACHN renal = system: ACHN renal
UO-31 renal = system: UO-31 renal
MOLT-4 leukemia = system: MOLT-4 leukemia
MDA-MB-435 = system: MDA-MB-435
KM12 colon = system: KM12 colon
BT-549 breast = system: BT-549 breast
SW-620 colon = system: SW-620 colon
SK-MEL-5 melanoma = system: SK-MEL-5 melanoma
NCI-H226 lung = system: NCI-H226 lung
U251 CNS = system: U251 CNS
SK-MEL-28 melanoma = system: SK-MEL-28 melanoma
OVCAR-3 ovarian = system: OVCAR-3 ovarian
HOP-92 NSCLC = system: HOP-92 NSCLC
LOX IMVI melanoma = system: LOX IMVI melanoma
SF-539 CNS = system: SF-539 CNS
SNB-75 CNS = system: SNB-75 CNS
HCC-2998 colon = system: HCC-2998 colon
EKVX NSCLC = system: EKVX NSCLC
A549 NSCLC = system: A549 NSCLC
DU-145 prostate = system: DU-145 prostate
MCF7 breast = system: MCF7 breast
NCI-H23 lung = system: NCI-H23 lung
K-562 leukemia = system: K-562 leukemia
PC-3 prostate = system: PC-3 prostate
OVCAR-5 ovarian = system: OVCAR-5 ovarian
MALME-3M melanoma = system: MALME-3M melanoma
HT29 colon = system: HT29 colon
MDA-MB-231 breast = system: MDA-MB-231 breast
HS 578T breast = system: HS 578T breast
TK-10 renal = system: TK-10 renal
SF-268 CNS = system: SF-268 CNS
NCI-H522 lung = system: NCI-H522 lung
OVCAR-4 ovarian = system: OVCAR-4 ovarian
RXF 393 renal = system: RXF 393 renal
HL-60(TB) leukemia = system: HL-60(TB) leukemia

N#C/C(C(=O)Nc1ccccc1)=C(/N)N1CCOCC1
TGI (HCT-116 colon): > 100 µM
TGI (M14 melanoma): > 100 µM
TGI (HCT-15 colon): > 100 µM
TGI (SR leukemia): > 100 µM
TGI (CAKI-1 renal): > 100 µM
TGI (UACC-257 melanoma): > 100 µM
TGI (HOP-62 NSCLC): > 100 µM
TGI (NCI/ADR-RES ovarian): > 100 µM
TGI (CCRF-CEM leukemia): > 100 µM
TGI (T-47D breast): > 100 µM
TGI (UACC-62 melanoma): > 100 µM
TGI (SK-MEL-2 melanoma): > 100 µM
TGI (IGROV1 ovarian): > 100 µM
TGI (A498 renal): > 100 µM
TGI (RPMI-8226 leukemia): > 100 µM
TGI (SNB-19 CNS): > 100 µM
TGI (NCI-H460 lung): > 100 µM
TGI (OVCAR-8 ovarian): > 100 µM
TGI (COLO 205 colon): > 100 µM
TGI (SK-OV-3 ovarian): > 100 µM
TGI (SN12C renal): > 100 µM
TGI (MDA-N): > 100 µM
TGI (SF-295 CNS): > 100 µM
TGI (786-0 renal): > 100 µM
TGI (ACHN renal): > 100 µM
TGI (UO-31 renal): > 100 µM
TGI (MOLT-4 leukemia): > 100 µM
TGI (MDA-MB-435): > 100 µM
TGI (KM12 colon): > 100 µM
TGI (BT-549 breast): > 100 µM
TGI (SW-620 colon): > 100 µM
TGI (SK-MEL-5 melanoma): > 100 µM
TGI (NCI-H226 lung): > 100 µM
TGI (U251 CNS): > 100 µM
TGI (SK-MEL-28 melanoma): > 100 µM
TGI (OVCAR-3 ovarian): > 100 µM
TGI (HOP-92 NSCLC): > 100 µM
TGI (LOX IMVI melanoma): > 100 µM
TGI (SF-539 CNS): > 100 µM
TGI (SNB-75 CNS): > 100 µM
TGI (HCC-2998 colon): > 100 µM
TGI (EKVX NSCLC): > 100 µM
TGI (A549 NSCLC): > 100 µM
TGI (DU-145 prostate): > 100 µM
TGI (MCF7 breast): > 100 µM
TGI (NCI-H23 lung): > 100 µM
TGI (K-562 leukemia): > 100 µM
TGI (PC-3 prostate): > 100 µM
TGI (OVCAR-5 ovarian): > 100 µM

CC(=O)c1c2c(cc3c1CC1(Cc4ccccc4C1=O)C3)CCC2 (stereo unspecified)
TGI (HCT-116 colon): 66.6 µM
TGI (M14 melanoma): 74.5 µM
TGI (HCT-15 colon): > 100 µM
TGI (MALME-3M melanoma): 51.5 µM
TGI (SR leukemia): 47.9 µM
TGI (HT29 colon): > 100 µM
TGI (CAKI-1 renal): 66 µM
TGI (UACC-257 melanoma): 64.6 µM
TGI (MDA-MB-231 breast): 93.4 µM
TGI (HOP-62 NSCLC): > 100 µM
TGI (NCI/ADR-RES ovarian): 53.3 µM
TGI (CCRF-CEM leukemia): > 100 µM
TGI (T-47D breast): 49.3 µM
TGI (SK-MEL-2 melanoma): 92 µM
TGI (IGROV1 ovarian): > 100 µM
TGI (HS 578T breast): > 100 µM
TGI (TK-10 renal): > 100 µM
TGI (A498 renal): > 100 µM
TGI (RPMI-8226 leukemia): 39.1 µM
TGI (SNB-19 CNS): > 100 µM
TGI (NCI-H460 lung): > 100 µM
TGI (OVCAR-8 ovarian): 89.1 µM
TGI (COLO 205 colon): 30.7 µM
TGI (SF-268 CNS): > 100 µM
TGI (SK-OV-3 ovarian): > 100 µM
TGI (SN12C renal): > 100 µM
TGI (MDA-N): > 100 µM
TGI (SF-295 CNS): > 100 µM
TGI (786-0 renal): 95.9 µM
TGI (ACHN renal): > 100 µM
TGI (UO-31 renal): > 100 µM
TGI (MOLT-4 leukemia): 29.1 µM
TGI (NCI-H522 lung): > 100 µM
TGI (MDA-MB-435): 64 µM
TGI (OVCAR-4 ovarian): > 100 µM
TGI (KM12 colon): 49 µM
TGI (SW-620 colon): > 100 µM
TGI (SK-MEL-5 melanoma): 23 µM
TGI (NCI-H226 lung): 72.4 µM
TGI (U251 CNS): > 100 µM
TGI (RXF 393 renal): 59.1 µM
TGI (SK-MEL-28 melanoma): 68.4 µM
TGI (OVCAR-3 ovarian): 52.7 µM
TGI (HOP-92 NSCLC): 49.5 µM
TGI (LOX IMVI melanoma): 55.7 µM
TGI (SF-539 CNS): > 100 µM
TGI (SNB-75 CNS): > 100 µM
TGI (HCC-2998 colon): > 100 µM
TGI (EKVX NSCLC): 63.9 µM
TGI (A549 NSCLC): > 100 µM
TGI (HL-60(TB) leukemia): 33.7 µM
TGI (DU-145 prostate): > 100 µM
TGI (MCF7 breast): 44.3 µM
TGI (NCI-H23 lung): > 100 µM
TGI (K-562 leukemia): > 100 µM
TGI (PC-3 prostate): > 100 µM
TGI (OVCAR-5 ovarian): > 100 µM
